From ChEMBL document CHEMBL1949518, “Synthesis and biological evaluation of some new 2-pyrazolines bearing benzene sulfonamide moiety as potential anti-inflammatory and anti-cancer agents” (Eur J Med Chem, 2011)

Experiments:
MDA-MB-468 = experiment: Anticancer activity against human MDA-MB-468 cells after 48 hrs by SRB assay; type: functional; settings: MDA-MB-468, 48 h; for CC50: read-out: LC50 (the source's name)
UO-31 [1] = experiment: Anticancer activity against human UO31 cells after 48 hrs by SRB assay; type: functional; settings: UO-31, 48 h; for CC50: read-out: LC50 (the source's name)
NCI-H23 = experiment: Anticancer activity against human NCI-H23 cells after 48 hrs by SRB assay; type: functional; settings: NCI-H23, 48 h
UACC-257 = experiment: Anticancer activity against human UACC257 cells after 48 hrs by SRB assay; type: functional; settings: UACC-257, 48 h
OVCAR-5 = experiment: Anticancer activity against human OVCAR5 cells after 48 hrs by SRB assay; type: functional; settings: OVCAR-5, 48 h
KM12 = experiment: Anticancer activity against human KM12 cells after 48 hrs by SRB assay; type: functional; settings: KM12, 48 h
MOLT-4 = experiment: Anticancer activity against human MOLT4 cells after 48 hrs by SRB assay; type: functional; settings: MOLT-4, 48 h
OVCAR-8 = experiment: Anticancer activity against human OVCAR8 cells after 48 hrs by SRB assay; type: functional; settings: OVCAR-8, 48 h; for CC50: read-out: LC50 (the source's name)
IGROV-1 = experiment: Anticancer activity against human IGROV1 cells after 48 hrs by SRB assay; type: functional; settings: IGROV-1, 48 h
SF-268 = experiment: Anticancer activity against human SF268 cells after 48 hrs by SRB assay; type: functional; settings: SF-268, 48 h; for CC50: read-out: LC50 (the source's name)
UACC-62 = experiment: Anticancer activity against human UACC62 cells after 48 hrs by SRB assay; type: functional; settings: UACC-62, 48 h
HCT-116 = experiment: Anticancer activity against human HCT116 cells after 48 hrs by SRB assay; type: functional; settings: HCT-116, 48 h
HOP-92 = experiment: Anticancer activity against human HOP92 cells after 48 hrs by SRB assay; type: functional; settings: HOP-92, 48 h
RPMI-8226 = experiment: Anticancer activity against human RPMI8226 cells after 48 hrs by SRB assay; type: functional; settings: RPMI-8226, 48 h
UO-31 [2] = experiment: Antiproliferative activity against human UO31 cells assessed as cell growth at 10^-5 M after 48 hrs by SRB assay relative to control; type: functional; settings: UO-31, 48 h, read-out: Activity
SF-295 = experiment: Anticancer activity against human SF295 cells after 48 hrs by SRB assay; type: functional; settings: SF-295, 48 h
NCI-H460 = experiment: Anticancer activity against human NCI-H460 cells after 48 hrs by SRB assay; type: functional; settings: NCI-H460, 48 h; for CC50: read-out: LC50 (the source's name)
SR = experiment: Anticancer activity against human SR cells after 48 hrs by SRB assay; type: functional
Mus musculus [3] = experiment: Toxicity in Swiss albino mouse assessed as behavioral change at 100 mg/kg, po measured up to 24 hrs; type: organism-based; parameters: dose 100 mg/kg, route oral; settings: in vivo
Rattus norvegicus = experiment: Ulcerogenic activity in fasted Wistar albino rat at 60 mg/kg, po administered as 3 dose measured after 6 hrs post last dose; type: toxicity, organism-based; parameters: dose 60 mg/kg, route oral; settings: in vivo
Mus musculus [4] = experiment: Toxicity in Swiss albino mouse assessed as mortality at 100 mg/kg, po measured up to 24 hrs; type: organism-based; parameters: dose 100 mg/kg, route oral; settings: in vivo
[5] = molecular target: Prostaglandin G/H synthase 1 (Bos taurus, UniProt O62664); experiment: Inhibition of bovine COX1 assessed as PGE2 formation preincubated for 10 mins by ELISA
Chain of Prostaglandin G/H synthase 1 (O62664 whole entry): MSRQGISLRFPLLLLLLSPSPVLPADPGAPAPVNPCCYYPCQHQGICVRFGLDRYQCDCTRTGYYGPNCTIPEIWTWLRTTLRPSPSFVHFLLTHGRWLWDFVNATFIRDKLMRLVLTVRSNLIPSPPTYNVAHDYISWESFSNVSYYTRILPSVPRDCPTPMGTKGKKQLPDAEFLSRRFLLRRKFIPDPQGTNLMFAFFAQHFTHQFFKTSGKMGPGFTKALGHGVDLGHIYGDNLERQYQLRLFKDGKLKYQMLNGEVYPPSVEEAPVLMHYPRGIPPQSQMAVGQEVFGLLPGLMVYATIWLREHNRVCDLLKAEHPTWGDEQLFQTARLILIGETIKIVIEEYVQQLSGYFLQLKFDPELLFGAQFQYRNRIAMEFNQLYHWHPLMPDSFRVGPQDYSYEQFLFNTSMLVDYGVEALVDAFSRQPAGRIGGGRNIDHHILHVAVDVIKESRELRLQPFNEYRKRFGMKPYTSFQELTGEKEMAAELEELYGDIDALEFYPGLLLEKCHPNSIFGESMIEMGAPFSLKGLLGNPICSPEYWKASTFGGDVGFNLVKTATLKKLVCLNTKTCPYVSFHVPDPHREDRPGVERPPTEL

`Cc1cc(O)c(C2=NN(c3ccc(S(N)(=O)=O)cc3)C(c3ccc(N(C)C)cc3)C2)c(C)c1Cl` (configuration not stated) showed a GI50 (MDA-MB-468) of 10.7 µM, a TGI (MDA-MB-468) of 24.6 µM and a CC50 (MDA-MB-468) of 56.8 µM. The GI50 (UO-31 [1]) was 3.78 µM, the TGI (UO-31 [1]) was 19.2 µM and the CC50 (UO-31 [1]) was 52.3 µM. The GI50 (NCI-H23) was 5.82 µM, the LC50 (concentration killing 50% of cells) (NCI-H23) was 47.3 µM and the TGI (NCI-H23) was 19.9 µM. It also gave a GI50 (UACC-257) of 11.9 µM, an LC50 (UACC-257) of 60.2 µM and a TGI (UACC-257) of 26.8 µM. For the same compound, the GI50 (OVCAR-5) was 12.3 µM, the LC50 (OVCAR-5) was 49.7 µM and the TGI (OVCAR-5) was 24.7 µM. For the same compound, the GI50 (KM12) was 2.8 µM, the LC50 (KM12) was 38.2 µM and the TGI (KM12) was 10.6 µM. For the same compound, the GI50 (MOLT-4) was 1.94 µM, the LC50 (MOLT-4) was 34.9 µM and the TGI (MOLT-4) was 7.26 µM. It also gave a GI50 (OVCAR-8) of 5.75 µM, a TGI (OVCAR-8) of 21.6 µM and a CC50 (OVCAR-8) of 66.4 µM. The GI50 (IGROV-1) was 6.19 µM, the LC50 (IGROV-1) was 60.2 µM and the TGI (IGROV-1) was 22.3 µM. The GI50 (SF-268) was 5.76 µM, the TGI (SF-268) was 19.4 µM and the CC50 (SF-268) was 48.9 µM. For the same compound, the GI50 (UACC-62) was 3.49 µM, the LC50 (lethal concentration 50%) (UACC-62) was 38.8 µM and the TGI (UACC-62) was 15.1 µM. For the same compound, the GI50 (HCT-116) was 3.47 µM, the LC50 (concentration killing 50% of cells) (HCT-116) was 36 µM and the TGI (HCT-116) was 12.9 µM. The GI50 (HOP-92) was 3.74 µM, the LC50 (HOP-92) was 41.9 µM and the TGI (HOP-92) was 17.6 µM. It also gave a GI50 (RPMI-8226) of 3.99 µM, an LC50 (RPMI-8226) of 22.3 µM and a TGI (RPMI-8226) of 5.02 µM. The growth at 10 µM (UO-31 [2]) was 66.6%, the GI50 (SF-295) was 16 µM and the LC50 (SF-295) was 62.4 µM. The TGI (SF-295) was 31.6 µM, the GI50 (NCI-H460) was 2.53 µM and the TGI (NCI-H460) was 7.24 µM. For the same compound, the CC50 (NCI-H460) was 29.8 µM, the GI50 (SR) was 1.28 µM and the LC50 (concentration killing 50% of cells) (SR) was 45.9 µM. For the same compound, the TGI (SR) was 17.8 µM.

For `COc1ccc(C2CC(c3c(O)cc(C)c(Cl)c3C)=NN2c2ccc(S(N)(=O)=O)cc2)cc1` (configuration not stated), the growth at 10 µM (UO-31 [2]) was 93.3%.

With `Cc1cc(O)c(C2=NN(c3ccc(S(N)(=O)=O)cc3)C(c3ccc(Cl)cc3)C2)c(C)c1Cl` (configuration not stated) the Activity (Mus musculus [3]) was “Non-toxic”, the GI50 (MDA-MB-468) was 17.1 µM and the TGI (MDA-MB-468) was 33.8 µM. It also gave a CC50 (MDA-MB-468) of 66.7 µM, a GI50 (UO-31 [1]) of 12.7 µM and a TGI (UO-31 [1]) of 29.4 µM. The CC50 (UO-31 [1]) was 68.1 µM, the GI50 (NCI-H23) was 17.7 µM and the TGI (NCI-H23) was 43.7 µM. For the same compound, the GI50 (UACC-257) was 26.3 µM, the TGI (UACC-257) was 63.1 µM and the Activity (Rattus norvegicus) was “Non-toxic”. For the same compound, the GI50 (OVCAR-5) was 19.4 µM, the TGI (OVCAR-5) was 38.1 µM and the GI50 (KM12) was 13.3 µM. The TGI (KM12) was 28.3 µM, the GI50 (MOLT-4) was 12.7 µM and the TGI (MOLT-4) was 43.2 µM. For the same compound, the GI50 (OVCAR-8) was 27.3 µM, the TGI (OVCAR-8) was 100 µM and the CC50 (OVCAR-8) was 100 µM. For the same compound, the GI50 (IGROV-1) was 18.3 µM, the TGI (IGROV-1) was 59 µM and the Activity (Mus musculus [4]) was “Non-toxic”. The GI50 (SF-268) was 18.7 µM, the TGI (SF-268) was 37.2 µM and the CC50 (SF-268) was 73.9 µM. It also gave a GI50 (UACC-62) of 9.92 µM, a TGI (UACC-62) of 25.8 µM and a GI50 (HOP-92) of 10.3 µM. The TGI (HOP-92) was 23.6 µM, the IC50 [5] was 89.5 µM and the GI50 (SF-295) was 19.2 µM. For the same compound, the TGI (SF-295) was 44.4 µM, the GI50 (NCI-H460) was 12.2 µM and the TGI (NCI-H460) was 27.4 µM. It also gave a CC50 (NCI-H460) of 61.4 µM, a GI50 (SR) of 14.1 µM and a TGI (SR) of 37.5 µM.
